Source: patent US20250340570A1, “COMPOSITIONS USEFUL FOR MODULATING SPLICING” (Skyhawk Therapeutics, Inc., priority 2022, published 2025)

Key:
[1] = test system: ATXN3 transcripts containing exon 4; test: ATXN3 quantitative splicing assay (qPCR, E4E5 transcripts containing exon 4); assay type: cell-based; details: Human neuroblastoma SK-N-MC cells, 24 h treatment, qPCR primers/probe E4E5
Protocol: Human neuroblastoma SK-N-MC cells were plated in 384-well plates at 20,000 cells/well. Twenty-four hours after plating, cells were treated with compounds for 24 h at appropriate concentrations ranging from 30 μM to 0.6 nM (0.3% DMSO). Treated cells were lysed in 15 μL of lysis buffer, and cDNA was synthesized using the Fast Advanced Cells-to-Ct kit. Two μL of each cDNA was used in qPCR reactions to confirm the exon 4 skipped transcripts of ATXN3. A second set of primers/probe E4E5 was used to detect the transcripts containing exon 4. The third set of primers/probe E8E9 was used to detect total gene level of ATXN3. The qPCR reactions were prepared in 384-well plates in 10.L volume, using TaqMan™ Fast Advanced Master Mix with primers and probes shown in the table below. Reactions were run in a Quant Studio 6 qPCR instrument with default settings.
The primers and probes are listed below in Table 5.

total ATXN3 protein = test: ATXN3 total protein assay (Mesoscale Discovery); assay type: cell-based; details: Human neuroblastoma SK-N-MC cells, 48 hours incubation, MSD assay
Protocol: Human neuroblastoma SK-N-MC cells were seeded at 10,000 cells/well in 384 well plates one day prior to compound treatment. The concentrations of compounds were tested at appropriate doses ranging from 30 µM to 0.6 nM. After incubation for 48 hours, the cells were lysed with 25.L of lysis buffer containing protease inhibitors, and total ATXN3 protein levels were assessed by Mesoscale Discovery (MSD) assay developed with one pair of and-ATXN3 antibodies. The capture and detect antibodies were raised in mouse and rabbit respectively. Anti-rabbit MSD-ST antibody was used for secondary antibody.
ATXN3 recombinant protein was used for standards. The readouts were captured with 35.L of MSD read buffer and multi-array 384-well high binding plates.

Structure (SMILES) | IC50 [1] | IC50 (total ATXN3 protein)
Cc1csc2c(NCc3ccncc3)snc12 [Compound 1, [(4-pyridyl)methyl](8-methyl-3,6-dithia-2-azabicyclo[3.3.0]octa-1,4,7-trien-4-yl)amine] | 10 to 40 µM | 10 to 40 µM
Cc1csc2c(NCc3ccccc3)snc12 [Compound 3, (benzyl)(8-methyl-3,6-dithia-2-azabicyclo[3.3.0]octa-1,4,7-trien-4-yl)amine] | 10 to 40 µM | 10 to 40 µM
Cc1csc2c(NCc3ccco3)snc12 [Compound 4, (furfuryl)(8-methyl-3,6-dithia-2-azabicyclo[3.3.0]octa-1,4,7-trien-4-yl)amine] | 10 to 40 µM | 10 to 40 µM
Cc1c(C[C@H](C)N)sc2c(NCc3ccccc3)snc12 [Compound 5, 7-[(S)-2-aminopropyl]-4-benzylamino-8-methyl-3,6-dithia-2-azabicyclo[3.3.0]octa-1,4,7-triene] | 5 to 10 µM | 0.501 to 5 µM
Cc1c(C[C@H](C)N)sc2c(NCc3ccco3)snc12 [Compound 6, 7-[(S)-2-aminopropyl]-4-(furfurylamino)-8-methyl-3,6-dithia-2-azabicyclo[3.3.0]octa-1,4,7-triene] | 0.501 to 5 µM | 0.501 to 5 µM
Cc1c(C[C@H](C)N)sc2c(NCc3cccs3)snc12 [Compound 7, 7-[(S)-2-aminopropyl]-8-methyl-4-thenylamino-3,6-dithia-2-azabicyclo[3.3.0]octa-1,4,7-triene] | 0.501 to 5 µM | 0.501 to 5 µM
Cc1c(C[C@@H](N)CC2CC2)sc2c(NCc3cccs3)snc12 [Compound 8, 7-[(S)-2-amino-3-cyclopropylpropyl]-8-methyl-4-thenylamino-3,6-dithia-2-azabicyclo[3.3.0]octa-1,4,7-triene] | 5 to 10 µM | 5 to 10 µM
Cc1c(C[C@@H](N)CC2CC2)sc2c(NCc3ccco3)snc12 [Compound 9, 7-[(S)-2-amino-3-cyclopropylpropyl]-4-(furfurylamino)-8-methyl-3,6-dithia-2-azabicyclo[3.3.0]octa-1,4,7-triene] | 0.501 to 5 µM | 0.501 to 5 µM
Cc1c(C[C@@H](N)CF)sc2c(NCc3cccs3)snc12 [Compound 10, 7-[(R)-2-amino-3-fluoropropyl]-8-methyl-4-thenylamino-3,6-dithia-2-azabicyclo[3.3.0]octa-1,4,7-triene] | 0.501 to 5 µM | 0.501 to 5 µM
C[C@H](N)Cc1sc2c(NCc3cccs3)snc2c1Cl [Compound 17, 7-[(S)-2-aminopropyl]-8-chloro-4-thenylamino-3,6-dithia-2-azabicyclo[3.3.0]octa-1,4,7-triene] | 0.501 to 5 µM | 0.101 to 0.5 µM
C[C@H](N)Cc1sc2c(NCc3cccs3)snc2c1Br [Compound 18, 7-[(S)-2-aminopropyl]-8-bromo-4-thenylamino-3,6-dithia-2-azabicyclo[3.3.0]octa-1,4,7-triene] | 0.101 to 0.5 µM | 0.101 to 0.5 µM
C[C@H](N)Cc1sc2c(NCc3cccs3)snc2c1C#N [Compound 19, 7-[(S)-2-aminopropyl]-4-thenylamino-3,6-dithia-2-azabicyclo[3.3.0]octa-1,4,7-triene-8-carbonitrile] | 0.501 to 5 µM | 0.501 to 5 µM
C[C@H](N)Cc1sc2c(NCc3cccs3)snc2c1C1CC1 [Compound 20, 7-[(S)-2-aminopropyl]-8-cyclopropyl-4-thenylamino-3,6-dithia-2-azabicyclo[3.3.0]octa-1,4,7-triene] | 10 to 40 µM | 10 to 40 µM
C=Cc1c(C[C@H](C)N)sc2c(NCc3cccs3)snc12 [Compound 21, 5-[(2S)-2-aminopropyl]-6-ethenyl-N-(thiophen-2-ylmethyl) thieno[3,2-c][1,2]thiazol-3-amine] | 10 to 40 µM | 10 to 40 µM
C[C@H](N)Cc1sc2c(NCc3ccco3)snc2c1Cl [Compound 23, 7-[(S)-2-aminopropyl]-8-chloro-4-(furfurylamino)-3,6-dithia-2-azabicyclo[3.3.0]octa-1,4,7-triene] | 0.101 to 0.5 µM | 0.101 to 0.5 µM
C[C@H](N)Cc1sc2c(NCc3ccco3)snc2c1Br [Compound 24, 7-[(S)-2-aminopropyl]-8-bromo-4-(furfurylamino)-3,6-dithia-2-azabicyclo[3.3.0]octa-1,4,7-triene] | 0.101 to 0.5 µM | 0.101 to 0.5 µM
C[C@H](N)Cc1sc2c(NCc3ccco3)snc2c1O [Compound 25, 7-[(S)-2-aminopropyl]-4-(furfurylamino)-3,6-dithia-2-azabicyclo[3.3.0]octa-1,4,7-trien-8-ol] | 10 to 40 µM | 10 to 40 µM

Structure (SMILES) | IC50 [1] | IC50 (total ATXN3 protein)
COc1c(C[C@H](C)N)sc2c(NCc3ccco3)snc12 [Compound 26, 5-[(2S)-2-aminopropyl]-N-(furan-2-ylmethyl)-6-methoxythieno[3,2-c][1,2]thiazol-3-amine] | 5 to 10 µM | 5 to 10 µM
C[C@H](N)Cc1sc2c(NCc3cccs3)snc2c1O [Compound 27, 7-[(S)-2-aminopropyl]-4-thenylamino-3,6-dithia-2-azabicyclo[3.3.0]octa-1,4,7-trien-8-ol] | 10 to 40 µM | 10 to 40 µM
COc1c(C[C@H](C)N)sc2c(NCc3cccs3)snc12 [Compound 28, 7-[(S)-2-aminopropyl]-8-methoxy-4-thenylamino-3,6-dithia-2-azabicyclo[3.3.0]octa-1,4,7-triene] | 5 to 10 µM | 10 to 40 µM
C[C@H](N)Cc1sc2c(NCc3cccs3)snc2c1F [Compound 30, 7-[(S)-2-aminopropyl]-8-fluoro-4-thenylamino-3,6-dithia-2-azabicyclo[3.3.0]octa-1,4,7-triene] | 5 to 10 µM | 10 to 40 µM
C[C@H](N)Cc1sc2c(NCc3ccco3)snc2c1C1CC1 [Compound 31, 7-[(S)-2-aminopropyl]-8-cyclopropyl-4-(furfurylamino)-3,6-dithia-2-azabicyclo[3.3.0]octa-1,4,7-triene] | 5 to 10 µM | 5 to 10 µM
C[C@H](N)Cc1sc2c(NCc3cccs3)snc2c1C(F)(F)F [Compound 35, 7-[(S)-2-aminopropyl]-4-thenylamino-8-(trifluoromethyl)-3,6-dithia-2-azabicyclo[3.3.0]octa-1,4,7-triene] | 0.501 to 5 µM | 0.501 to 5 µM
Cc1c(C[C@@H](N)CC(F)(F)F)sc2c(NCc3cccs3)snc12 [Compound 36, 7-[(S)-2-amino-4,4,4-trifluorobutyl]-8-methyl-4-thenylamino-3,6-dithia-2-azabicyclo[3.3.0]octa-1,4,7-triene] | 0.501 to 5 µM | 0.501 to 5 µM
Cc1c(C[C@@H](N)CO)sc2c(NCc3cccs3)snc12 [Compound 37, (R)-2-amino-3-(8-methyl-4-thenylamino-3,6-dithia-2-azabicyclo[3.3.0]octa-1,4,7-trien-7-yl)-1-propanol] | 0.501 to 5 µM | 0.501 to 5 µM
N[C@H](Cc1sc2c(NCc3cccs3)snc2c1Cl)CC(F)(F)F [Compound 38, 7-[(S)-2-amino-4,4,4-trifluorobutyl]-8-chloro-4-thenylamino-3,6-dithia-2-azabicyclo[3.3.0]octa-1,4,7-triene] | 0.501 to 5 µM | 0.501 to 5 µM
N[C@H](Cc1sc2c(NCc3cccs3)snc2c1Br)CC(F)(F)F [Compound 39, 7-[(S)-2-amino-4,4,4-trifluorobutyl]-8-bromo-4-thenylamino-3,6-dithia-2-azabicyclo[3.3.0]octa-1,4,7-triene] | 0.501 to 5 µM | 0.501 to 5 µM
N[C@H](Cc1sc2c(NCc3ccco3)snc2c1Cl)CC(F)(F)F [Compound 40, 7-[(S)-2-amino-4,4,4-trifluorobutyl]-8-chloro-4-(furfurylamino)-3,6-dithia-2-azabicyclo[3.3.0]octa-1,4,7-triene] | 0.501 to 5 µM | 0.501 to 5 µM
N[C@H](Cc1sc2c(NCc3ccco3)snc2c1Br)CC(F)(F)F [Compound 41, 7-[(S)-2-amino-4,4,4-trifluorobutyl]-8-bromo-4-(furfurylamino)-3,6-dithia-2-azabicyclo[3.3.0]octa-1,4,7-triene] | 0.501 to 5 µM | 0.501 to 5 µM
N[C@H](Cc1sc2c(NCc3cccs3)snc2c1Cl)C(F)F [Compound 42, 7-[(R)-2-amino-3,3-difluoropropyl]-8-chloro-4-thenylamino-3,6-dithia-2-azabicyclo[3.3.0]octa-1,4,7-triene] | 0.501 to 5 µM | 0.501 to 5 µM
N[C@@H](CO)Cc1sc2c(NCc3cccs3)snc2c1Cl [Compound 43, (R)-2-amino-3-(8-chloro-4-thenylamino-3,6-dithia-2-azabicyclo[3.3.0]octa-1,4,7-trien-7-yl)-1-propanol] | 0.501 to 5 µM | 0.101 to 0.5 µM
COC[C@H](N)Cc1sc2c(NCc3cccs3)snc2c1Cl [Compound 44, 7-[(R)-2-amino-3-methoxypropyl]-8-chloro-4-thenylamino-3,6-dithia-2-azabicyclo[3.3.0]octa-1,4,7-triene] | 5 to 10 µM | 0.501 to 5 µM
Cc1c(CCCN)sc2c(NCc3cccs3)snc12 [Compound 45, 7-(3-aminopropyl)-8-methyl-4-thenylamino-3,6-dithia-2-azabicyclo[3.3.0]octa-1,4,7-triene] | 10 to 40 µM | 10 to 40 µM
